Results reported in publication PMC7136958, “Targeting the pregnane X receptor using microbial metabolite mimicry” (EMBO Molecular Medicine, 2020).
Several values for one entry are separate records, joined by “and”; a condition that tells them apart may be missing. Identical values can stand only once. Like-named read-outs stand apart in the source and are kept apart here. Each block holds one compound with its values, some of them ahead of it.

Columns and labels:
hPXR-LBD (PXR.1) = target: T1, hPXR-LBD (PXR.1) (Homo sapiens, UniProt O75469); assay: Isothermal titration calorimetry with His-tagged hPXR-LBD; type: binding
T1 construct: made in house; host or cells: E. coli BL21-Gold
T1 sequence (O75469 146-433 limits assumed): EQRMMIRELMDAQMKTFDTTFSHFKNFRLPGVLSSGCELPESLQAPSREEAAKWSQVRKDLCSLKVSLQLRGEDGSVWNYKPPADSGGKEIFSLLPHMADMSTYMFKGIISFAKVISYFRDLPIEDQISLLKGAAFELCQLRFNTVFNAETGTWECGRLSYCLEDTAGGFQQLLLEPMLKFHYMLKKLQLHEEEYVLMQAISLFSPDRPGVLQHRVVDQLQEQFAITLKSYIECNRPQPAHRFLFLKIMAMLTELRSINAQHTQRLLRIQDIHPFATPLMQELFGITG
Procedure: The cloning, expression, and purification of His‐tagged PXR‐LBD were performed as previously published (Wallace et al, 2013) with the following modifications: For protein expression, Luria–Bertani (LB) media were inoculated with a saturated culture of BL21‐Gold cells transformed with HIS‐LIC plasmid containing the PXR‐LBD construct. The mixture was allowed to shake at 37°C until the cells reached an OD600 ~ 0.6, and then, the temperature was reduced to 18°C, at which time IPTG was added (final concentration of 0.1 mM) to induce protein expression. For purification, the His‐tag was not removed, and the uncleaved protein was loaded onto the gel filtration column with buffer containing HEPES (4‐(2‐hydroxyethyl)‐1‐piperazineethanesulfonic acid) (25 mM, pH 7.5) and NaCl (150 mM).
Isothermal titration calorimetry (ITC) was carried out using a VP‐ITC microcalorimeter from MicroCal⁄Malvern Instruments (Northampton, MA, USA). […] In all the experiments, the ligand solution was injected in 10 μl aliquots into the calorimetric cell containing PXR‐LBD (ligand‐binding domain) at a concentration of 3–6 μM. […] The experiments were carried out at 37°C. The heat evolved upon each injection of the ligands was obtained from the integral of the calorimetric signal. The heat associated with binding to PXR‐LBD in the cell was obtained by subtracting the heat of dilution from the heat of reaction.

NF-κB = assay: TNF-α-induced NF-κB reporter assay in LS174T PXR-KO cells; conditions: LS174T PXR-KO, EXP3; 10 μM + TNFα 5 ng/ml; TNFa 5 ng/ml = 100; listed as RIF
From the text: In early passage PXR‐KO cells, we used PXR and NF‐κB reporter‐co‐transfected and NF‐κB reporter‐transfected PXR‐KO cell line.
CRISPR/Cas9‐mediated knockout cells were generated by Synthego Corporation (Redwood City, CA, USA). Briefly, cells were first tested negative for mycoplasma. Guide RNA was selected for high activity, specificity, and activity to create premature stop codons through frameshift mutations in the coding region via insertions and/or deletions (Indels) within exon 2 of the gene encoding human PXR (NR1I2 transcript ID ENST00000337940). […] To generate these cells, ribonucleoproteins (RNPs) containing the Cas9 protein and synthetic chemically modified sgRNA (Synthego) were electroporated into the cells using Synthego's optimized protocol. Editing efficiency is assessed upon recovery, 48 h post‐electroporation. Genomic DNA is extracted from a portion of the cells, PCR‐amplified, and sequenced using Sanger sequencing. The resulting chromatograms are processed using Synthego Inference of CRISPR Edits software (ice.synthego.com).

[1] = test system: CYP1A1, CYP3A4, MDR1 mRNA in HepaRG cells; conditions: for 1A1 mRNA fold to C: normalised to GAPDH, fold vs UT
Procedure: Caco‐2 cells were purchased from ATCC, and authenticity was validated by multiplexed STR DNA (short tandem repeat deoxyribonucleic acid) profiling performed by Genetica. […] Cells were maintained at 37°C and 5% CO2 in a humidified incubator. […] Three HepaRG™‐derived cell lines, including 5F Clone control cells, and cells with targeted functional PXR and AhR gene knockouts, PXR‐KO and AhR‐KO, respectively, were purchased from Sigma (Czech Republic). Cells were handled according to the manufacturer's protocol. Human hepatocytes were purchased from Biopredic International (France) and Triangle Research Labs, LLC, Lonza (USA). Cultures were maintained in serum‐free medium at 37°C and 5% CO2 in a humidified incubator.
The measurements were performed in triplicate.

[2] = test system: CYP1A1, CYP3A4, MDR1 mRNA in primary human hepatocytes; assay: qRT-PCR of CYP1A1, CYP3A4, MDR1 mRNA in primary human hepatocytes (four donors); conditions: for CYP1A1 (1A1) mRNA, fold to C: primary human hepatocytes, fold vs untreated (UT)
Procedure: (§1) Cells or primary human hepatocytes from four different donors (HEP200529, HEP220932, HEP200533, and HEP200538) were incubated for 24 h with test compounds; the vehicle was DMSO (0.1% v/v). Total RNA was isolated using TRI Reagent® (Molecular Research Center, Ohio, USA). cDNA was synthesized from 1,000 ng of total RNA using M‐MuLV Reverse Transcriptase (New England Biolabs, Ipswich, Massachusetts, USA) at 42°C for 60 min in the presence of random hexamers (New England Biolabs). Quantitative reverse transcriptase–polymerase chain reaction (qRT–PCR) was performed using LightCycler® 480 Probes Master on a LightCycler® 480 II apparatus (Roche Diagnostic Corporation).
(§2) The following protocol was used: An activation step at 95°C for 10 min was followed by 45 cycles of PCR (denaturation at 95°C for 10 s; annealing with elongation at 60°C for 30 s). The measurements were performed in triplicate. Gene expression was normalized per GAPDH as a housekeeping gene. […] Data are expressed as fold induction ± SD over the vehicle‐treated cells. The bar graph depicts one representative experiment of a series of experiments performed in three consecutive passages of cells. Differences were tested using one‐way ANOVA with Dunnett's post hoc test, and P < 0.05 was considered significant.

AhR = target: T2, AhR (Homo sapiens, UniProt P35869); assay: AhR reporter assay, HepG2 cells stably expressing pCYP1A1 luciferase (AZ-AHR); type: cell-based; conditions: human; AZ-AHR cells, positive control, fold vs UT, concentration not given
T2 construct: endogenous in cells; host or cells: AZ-AHR (HepG2)
T2 sequence (P35869 11-848): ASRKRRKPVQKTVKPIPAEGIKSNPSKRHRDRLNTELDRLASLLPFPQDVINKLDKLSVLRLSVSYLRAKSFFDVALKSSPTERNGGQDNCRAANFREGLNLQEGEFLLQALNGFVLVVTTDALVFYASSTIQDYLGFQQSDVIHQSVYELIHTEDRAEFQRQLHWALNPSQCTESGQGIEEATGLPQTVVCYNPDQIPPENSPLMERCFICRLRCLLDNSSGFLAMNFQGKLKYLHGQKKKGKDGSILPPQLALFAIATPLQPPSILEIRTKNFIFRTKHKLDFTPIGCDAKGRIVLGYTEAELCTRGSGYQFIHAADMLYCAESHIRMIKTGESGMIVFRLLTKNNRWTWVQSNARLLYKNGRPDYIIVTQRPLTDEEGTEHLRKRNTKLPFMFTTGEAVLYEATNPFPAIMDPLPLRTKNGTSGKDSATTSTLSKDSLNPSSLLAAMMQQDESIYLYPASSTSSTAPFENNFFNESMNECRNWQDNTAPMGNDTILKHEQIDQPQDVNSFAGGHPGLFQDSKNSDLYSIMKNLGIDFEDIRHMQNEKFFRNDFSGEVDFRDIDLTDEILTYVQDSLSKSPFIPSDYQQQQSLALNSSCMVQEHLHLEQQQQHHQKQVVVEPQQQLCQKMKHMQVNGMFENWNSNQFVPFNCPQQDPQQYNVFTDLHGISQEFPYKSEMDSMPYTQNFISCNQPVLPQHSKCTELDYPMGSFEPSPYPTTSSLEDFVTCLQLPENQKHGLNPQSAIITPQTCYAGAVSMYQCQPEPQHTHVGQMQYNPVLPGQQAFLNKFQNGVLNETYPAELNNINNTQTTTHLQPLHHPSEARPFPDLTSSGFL
Procedure: Incubations were performed in four technical replicates.

[3] = test system: CYP1A1, CYP3A4, MDR1 mRNA in LS180 cells; assay: qRT-PCR of CYP1A1, CYP3A4, MDR1 mRNA in LS180 cells with or without (mock) transfected PXR; conditions: normalised to GAPDH, fold to UT control
Procedure: as §1, §2

thermal signature of interaction with hPXR-LBD (hPXR-LBD (PXR.1)): did not induce a thermal signature
Structure (SMILES): O=C(O)CCc1c[nH]c2ccccc12 [IPA, indole‐3‐propionic acid, reference compound]

NFkB %max (NF-κB): 94.8% and 94.84%
Structure (SMILES): CO[C@H]1/C=C/O[C@@]2(C)Oc3c(C)c(O)c4c(O)c(c(/C=N/N5CCN(C)CC5)c(O)c4c3C2=O)NC(=O)/C(C)=C\C=C\[C@H](C)[C@H](O)[C@@H](C)[C@@H](O)[C@@H](C)[C@H](OC(C)=O)[C@@H]1C [Rifampicin, reference compound]

Structure (SMILES): Clc1cc2c(cc1Cl)Oc1cc(Cl)c(Cl)cc1O2 [TCDD, 2,3,7,8‐tetrachlorodibenzo‐p‐dioxin, reference compound]
1A1 mRNA fold to C ([1]; HepaRG AHR-KO): 1.24 fold
1A1 mRNA fold to C ([1]; HepaRG CONTROL 5F Clone): 151.69 fold
CYP1A1 (1A1) mRNA, fold to C ([1]; HepaRG PXR-KO cells, qRT-PCR normalised to GAPDH, fold vs untreated (UT)): 338.18 fold
CYP1A1 mRNA induction ([1]; HepaRG control 5F clone, PXR-KO, AhR-KO): induces
CYP1A1 mRNA induction ([2]; four donors): induced CYP1A1 mRNA in all cells
CYP1A1 mRNA fold to C ([2]; primary human hepatocytes donor Hep200538, normalised to GAPDH, fold to UT control): 10734.74
CYP1A1 (1A1) mRNA, fold to C ([2]; donor Hep200529, normalised to GAPDH): 394.35 fold
CYP1A1 (1A1) mRNA, fold to C ([2]; donor Hep200533, normalised to GAPDH): 1246.21 fold
CYP1A1 (1A1) mRNA, fold to C ([2]; donor Hep220932, normalised to GAPDH): 962.07 fold
fold induction at 24 h (AhR): 485
CYP1A1 mRNA fold to C ([3]; PXR-transfected LS180 cells): 1299.13
CYP1A1 mRNA fold to C ([3]; mock-transfected LS180 cells): 2347.10
